The values that follow come from patent publication US10034886B2, “GLP-1 receptor modulators” (Celgene International II SÀRL, priority 2014, dated 2018).

Read-outs that look alike come from different tables or passages of the source.

For the assay, the target named is T1, GLP-1R (Homo sapiens, UniProt P43220).
T1 construct: host or cells: GLP-1R CRE-bla CHO-K1 cells
In words: EC20 GLP-1(9-36) PAM cAMP assay: dose response of compound in the presence of fixed concentration of GLP-1(9-36). The format is cell-based. Particulars: GLP-1R CRE-bla CHO-K1 cells, read-out: EC20 GLP-1(9-36) PAM EC50. In outline: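 Positive allosteric modulation read as cAMP accumulation: compound titrations (12 points) combined with an EC20 level of GLP-1(9-36) on CHO-K1 GLP-1R CRE-bla cells, IBMX present, 30 min, 37 °C, pH 7.4 buffer. Luminescence converted to cAMP via standards; non-linear fit gave EC50 and Emax.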

Setting [1] is: compound dose response with fixed concentration of GLP-1(9-36).
Setting [2] is: dose response of compound in presence of fixed concentration of GLP-1(9-36).

T1 sequence (P43220 24-463): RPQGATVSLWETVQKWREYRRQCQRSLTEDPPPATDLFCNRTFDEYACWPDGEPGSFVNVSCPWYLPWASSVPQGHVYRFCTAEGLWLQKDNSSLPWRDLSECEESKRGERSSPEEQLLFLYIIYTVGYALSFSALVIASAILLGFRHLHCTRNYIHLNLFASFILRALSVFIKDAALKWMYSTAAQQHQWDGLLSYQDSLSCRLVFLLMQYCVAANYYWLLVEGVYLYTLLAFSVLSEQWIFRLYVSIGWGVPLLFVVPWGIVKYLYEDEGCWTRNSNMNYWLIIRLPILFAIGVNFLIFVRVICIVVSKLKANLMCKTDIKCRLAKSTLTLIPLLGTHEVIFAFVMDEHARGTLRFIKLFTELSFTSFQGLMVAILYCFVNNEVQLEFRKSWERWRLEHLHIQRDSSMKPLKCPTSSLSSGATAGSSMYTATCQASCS
T1 sequence (P01275 100-127 partner limits assumed): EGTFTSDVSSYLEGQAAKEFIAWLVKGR

Take `COc1cc(/C=C/c2cnc(-c3ccc(C[C@H](NC(=O)c4ccc(C(C)(C)C)s4)C(=O)N[C@H](C)C(=O)O)cc3)nc2)cc(OC)c1` [Compound 1259]: under setting [1], the EC50 fell in the range of 5000 to 10000 nM.
On to `Cc1ccc(C(O)c2ccc(-c3cnc(-c4ccc(C[C@H](NC(=O)c5ccc(C(C)(C)C)s5)C(=O)N[C@H](C)C(=O)O)cc4)nc3)cc2)cc1` (stereo partly shown) [Compound 1030], for which, under setting [2], the concentration for a half-maximal effect (EC50) fell in the range of 5000 to 10000 nM.
As to `CC(C)C1CCN(c2cnc(-c3ccc(CC(NC(=O)c4ccc(C(C)(C)C)s4)C(=O)N4CC(C(=O)O)C4)cc3)nc2)CC1` (stereo not shown) [Compound 1422], the concentration for a half-maximal effect (EC50) under setting [1] lay in the range of 800 to 2500 nM.
Same read-out and setting: the value for `CCC[C@H]1CC[C@H](C2CC(=O)N(c3cnc(-c4ccc(C[C@H](NC(=O)c5ccc(C(C)(C)C)s5)C(=O)N5CC(C(=O)O)C5)cc4)nc3)C(=O)C2)CC1` [Compound 1512] was less than 800 nM.
On the same count and under the same terms, the value for `C[C@@H](NC(=O)[C@H](Cc1ccc(-c2ncc(-c3ccc(C4CCC(C)(C)CC4)cc3)cn2)cc1)NC(=O)c1ccc(C(C)(C)C)s1)C(=O)O` [Compound 1316] was less than 800 nM.
For `CC(C)(C)c1ccc(C(=O)N[C@@H](Cc2ccc(-c3ncc(-c4nc(CC5CCCCC5)no4)cn3)cc2)C(=O)NCCC(=O)O)cc1` [Compound 747], under setting [2], the half-maximal effective concentration (EC50) lay within 2500 to 5000 nM.
With `C[C@@H](NC(=O)[C@H](Cc1ccc(-c2ncc(/C=C/c3ccccc3C(F)(F)F)cn2)cc1)NC(=O)c1ccc(C(C)(C)C)s1)C(=O)O` [Compound 1260], under setting [1], the concentration giving a half-maximal response (EC50) was in the range of 800 to 2500 nM.
As for `CCCCCCCOc1ccc(-c2cnc(-c3ccc(C[C@H](NC(=O)c4ccc(C(C)(C)C)s4)C(=O)N4CC(C(=O)O)C(C)(C)C4)cc3)nc2)cc1` (stereo partly shown) [Compound 638], the EC50 under setting [2] lay in the range of 2500 to 5000 nM.
Still for that read-out and setting: the value for `CCCCCCCOc1ccc(-c2cnc(-c3ccc(C[C@H](NC(=O)c4ccc(C(C)(C)C)cc4)C(=O)N[C@@H](CCCCN)C(=O)O)cc3)nc2)cc1` [Compound 492] was 5000 to 10000 nM.
As for `C[C@@H](NC(=O)[C@H](Cc1ccc(-c2ncc(/C=C/c3cccc(F)c3)cn2)cc1)NC(=O)c1ccc(C(C)(C)C)s1)C(=O)O` [Compound 1248], the EC50 under setting [1] is 5000 to 10000 nM.
On to `CCCCCCCOc1ccc(-c2cnc(-c3ccc(C[C@H](NC(=O)c4ccc(CC)cc4)C(=O)NC(C(=O)O)C(O)c4ccccc4)cc3)nc2)cc1` (stereo partly shown) [Compound 947], for which the EC50 under setting [2] is 800 to 2500 nM.
Consider `CCCCCCCOc1ccc(-c2cnc(-c3ccc(C[C@H](NC(=O)c4ccc(C(C)(C)C)s4)C(=O)NC4(C(=O)O)CCCC4)cc3)nc2)cc1` [Compound 395], for which the EC50 under setting [2] is 800 to 2500 nM.
In the case of `CCCCCCCOc1ccc(-c2cnc(-c3ccc(C[C@H](NC(=O)c4ccc(C(C)(C)C)s4)C(=O)NC(C(=O)O)C(O)c4cn(C)cn4)cc3)nc2)cc1` (stereo partly shown) [Compound 906], the EC50 under setting [2] lay within 2500 to 5000 nM.
For the molecule `CCCCCCCOc1ccc(-c2cnc(-c3ccc(C[C@@H](NC(=O)c4ccc(C(C)(C)C)s4)C(=O)N4CC(C(=O)O)C4)cc3)nc2)cc1` [Compound 1271], the concentration giving a half-maximal response (EC50) under setting [1] is 800 to 2500 nM.
`CCCCCCCOc1ccc(-c2cnc(-c3ccc(C[C@H](NC(=O)c4ccc(C(C)(C)C)cc4)C(=O)N4CCC[C@@H](C(=O)O)[C@H]4C)cc3)nc2)cc1` [Compound 583]: the EC50 under setting [2] is 5000 to 10000 nM.
On to `CC[C@H]1CC[C@H](c2ccc(-c3cnc(-c4ccc(C[C@H](NC(=O)c5ccc(C(C)(C)C)s5)C(=O)NCCC(=O)O)cc4)nc3)cc2)CC1` [Compound 1324], for which the 50% effective concentration (EC50) under setting [1] was less than 800 nM.
The same measure, in the same setting: the value for `CC[C@H]1CC[C@H](c2ccc(-c3cnc(-c4ccc(C[C@H](NC(=O)c5ccc(C(C)(C)C)s5)C(=O)N5CC(C(=O)O)C5)cc4)nn3)cc2)CC1` [Compound 1337] was less than 800 nM.
In the case of `CCCCCCCOc1ccc(-c2cnc(-c3ccc(C[C@H](NC(=O)c4ccc(C(C)(C)C)cc4)C(=O)NCCC(=O)O)cc3)nc2)cc1OC` [Compound 699], the EC50 under setting [2] was 5000 to 10000 nM.
The same measure, in the same setting: the value for `CCCCCCCOc1ccc(-c2cnc(-c3ccc(C[C@H](NC(=O)c4ccc(C(C)(C)C)cc4)C(=O)N[C@@H](CC(=O)NCCO)C(=O)O)cc3)nc2)cc1` [Compound 508] was less than 800 nM; that for `CCCCCCCOc1ccc2cc(-c3ccc(C[C@H](NC(=O)c4ccc(C(C)(C)C)cc4)C(=O)O)cc3)ncc2c1` [Compound 672, (S)-2-(4-(tert-butyl)benzamido)-3-(4-(7-(heptyloxy)isoquinolin-3-yl)phenyl)propanoic acid] was 2500 to 5000 nM.
On the same count and under the same terms, to `CCCCCCCOc1ccc(-c2cnc(-c3ccc(C[C@H](NC(=O)c4ccc(C(C)(C)C)s4)C(=O)N[C@H](CC(=O)O)C(=O)NC)cc3)nc2)cc1` [Compound 630] belongs less than 800 nM.
On the same count and under the same terms, to `CCCCCCCOc1ccc(-c2cnc(-c3ccc(C[C@H](NC(=O)c4ccc(C(C)(C)C)s4)C(=O)NC(C(=O)O)c4cccs4)cc3)nc2)cc1` (stereo partly shown) [Compound 600] belongs less than 800 nM.
For the molecule `CC(C)(C)c1ccc(C(=O)N[C@@H](Cc2ccc(-c3ncc(-c4ccc(OC5CCCC5)cc4)cn3)cc2)C(=O)NCCC(=O)O)cc1` [Compound 688], the EC50 under setting [2] was in the range of 2500 to 5000 nM.
On the same count and under the same terms, the value for `CCCCCCCOc1ccc(-c2cnc(-c3ccc(C[C@H](NC(=O)c4ccc(C(C)(C)C)nc4)C(=O)N4CC(C(=O)O)C4)cc3)nc2)cc1` [Compound 1117] was 800 to 2500 nM; that for `CC[C@H]1CC[C@H](c2ccc(-c3cnc(-c4ccc(C[C@H](NC(=O)c5ccc(C(C)=O)cc5)C(=O)N5CC(C(=O)O)C5)cc4)nc3)cc2)CC1` [Compound 1162] was 2500 to 5000 nM.
Same read-out and setting: the value for `CC(C)(C)COc1ccc(-c2cnc(-c3ccc(C[C@H](NC(=O)c4ccc(C(C)(C)C)s4)C(=O)N4CC(C(=O)O)C4)cc3)nc2)cc1` [Compound 775] was less than 800 nM.
As for `CN(C)c1ccc(C2CCN(c3cnc(-c4ccc(CC(NC(=O)c5ccc(C(C)(C)C)s5)C(=O)N5CC(C(=O)O)C5)cc4)nc3)CC2)cc1` (stereo not shown) [Compound 1517], the EC50 under setting [1] was less than 800 nM.
As for `CCCCCCCOc1ccc(-c2cnc(-c3ccc(C[C@H](NC(=O)c4ccc(C(C)(C)C)cc4)C(=O)N[C@@H](CC(=O)NCCN(C)C)C(=O)O)cc3)nc2)cc1` [Compound 485], the EC50 under setting [2] lay in the range of 5000 to 10000 nM.
Same read-out and setting: to `CCCCCCCOc1ccc(-c2nnc(-c3ccc(C[C@H](NC(=O)c4ccc(C(C)(C)C)cc4)C(=O)N[C@H](C)C(=O)O)cc3)s2)cc1` [Compound 802] belongs 2500 to 5000 nM.
For the molecule `C[C@@H](NC(=O)[C@H](Cc1ccc(-c2ncc(-c3ccc(-c4ccc(C(F)(F)F)cc4)cc3)cn2)cc1)NC(=O)c1ccc(C(C)(C)C)s1)C(=O)O` [Compound 1313], the 50% effective concentration (EC50) under setting [1] was less than 800 nM.
On to `CCCCCCCOc1ccc(-c2cnc(-c3ccc(C[C@H](NC(=O)c4ccc(C5CC5)cc4)C(=O)N[C@H](C)C(=O)O)cc3)nc2)cc1` [Compound 827], for which the EC50 under setting [2] is 800 to 2500 nM.
Same read-out and setting: to `CCCCCCCOc1ccc(-c2cnc(-c3ccc(C[C@H](NC(=O)c4ccc(C(C)(C)C)s4)C(=O)N[C@@H](C(=O)O)C(C)c4ccccc4)cc3)nc2)cc1` (stereo partly shown) [Compound 898] belongs 2500 to 5000 nM; to `CCCCCCCOc1ccc(-c2cnc(-c3ccc(C[C@H](NC(=O)c4ccc(C(C)(C)C)s4)C(=O)NC4CCCC(C(=O)O)C4)cc3)nc2)cc1` (stereo partly shown) [Compound 535], 5000 to 10000 nM; to `C[C@@H](NC(=O)[C@H](Cc1ccc(-c2ncc(-c3ccc(Oc4ccccc4)cc3)cn2)cc1)NC(=O)c1ccc(C(C)(C)C)s1)C(=O)O` [Compound 1000], 5000 to 10000 nM.
On the same count and under the same terms, to `CC[C@H]1CC[C@H](c2ccc(-c3cnc(-c4ccc(C[C@H](NC(=O)c5cc6cc(OC)ccc6[nH]5)C(=O)N5CC(C(=O)O)C5)cc4)nc3)cc2)CC1` [Compound 1166] belongs less than 800 nM.
Turning to `CCC[C@H]1CC[C@H](C2CCN(c3cnc(-c4ccc(CC(NC(=O)c5ccc(C(C)(C)C)s5)C(=O)NS(=O)(=O)C(C)C)cc4)nc3)CC2)CC1` (stereo partly shown) [Compound 1545], under setting [1], the concentration for a half-maximal effect (EC50) was less than 800 nM.
As for `CCCCCCCOc1ccc(-c2cnc(-c3ccc(C[C@H](NC(=O)c4ccc(N5CCCC5)cc4)C(=O)NCCC(=O)O)cc3)nc2)cc1` [Compound 869], under setting [2], the EC50 lay in the range of 2500 to 5000 nM.
Same read-out and setting: the value for `CCCCCCCOc1ccc(-c2cnc(-c3ccc(CC(NC(=O)c4ccc(C(C)(C)C)s4)C(=O)N[C@@H](Cc4ccccc4)C(=O)O)cc3)nc2)cc1` (stereo partly shown) [Compound 415] was less than 800 nM.
As for `C[C@@H](NC(=O)[C@H](Cc1ccc(-c2ncc(-c3ccc(-c4cccc(C(F)(F)F)c4)cc3)cn2)cc1)NC(=O)c1ccc(C(C)(C)C)s1)C(=O)O` [Compound 1319], the half-maximal effective concentration (EC50) under setting [1] is 5000 to 10000 nM.
In the case of `CCc1ccc(/C=C/c2cnc(-c3ccc(C[C@H](NC(=O)c4ccc(C(C)(C)C)s4)C(=O)N4CC[C@H](C(=O)O)C4)cc3)nc2)cc1` [Compound 1086], the EC50 under setting [2] lay within 800 to 2500 nM.
Still for that read-out and setting: the value for `CCCCCCCOc1ccc(-c2cnc(-c3ccc(C[C@H](NC(=O)c4ccc(C(C)(C)C)s4)C(=O)NC(C(=O)O)[C@@H](C)c4ccccc4)cc3)nc2)cc1` (stereo partly shown) [Compound 897] was 5000 to 10000 nM.
As for `CCC[C@H]1CC[C@H](C2CCN(c3cnc(-c4ccc(C[C@H](NC(=O)c5ccc(C(C)(C)C)s5)C(=O)O)cc4)nc3)CC2)CC1` [Compound 1439, (S)-2-(5-(tert-butyl)thiophene-2-carboxamido)-3-(4-(5-(4-((1s,4r)-4-propylcyclohexyl)piperidin-1-yl)pyrimidin-2-yl)phenyl)propanoic acid], under setting [1], the EC50 is less than 800 nM.
Consider `CCc1ccc(-c2ccc(-c3cnc(-c4ccc(C[C@H](NC(=O)c5ccc(C(C)(C)C)s5)C(=O)N5CC(C(=O)O)C5)cc4)nc3)c(F)c2)cc1` [Compound 1189], for which the EC50 under setting [2] was less than 800 nM.
On to `CC[C@H]1CC[C@H](c2ccc(-c3cnc(-c4ccc(C[C@H](NC(=O)c5ccc(CC(C)C)cc5)C(=O)N5CC(C(=O)O)C5)cc4)nc3)cc2)CC1` [Compound 1155], for which the EC50 under setting [2] is less than 800 nM.
Still for that read-out and setting: the value for `CCCCCCCOc1ccc(-c2cnc(-c3ccc(C[C@H](NC(=O)c4ccc(C(C)(C)C)s4)C(=O)NC4CCC(C(=O)O)C4)cc3)nc2)cc1` (stereo partly shown) [Compound 608] was 800 to 2500 nM; that for `CCCCCCCOc1ccc(-c2cnc(-c3ccc(C[C@H](NC(=O)c4ccc(C(C)(C)C)s4)C(=O)N[C@@H](CCCN)C(=O)O)cc3)nc2)cc1` [Compound 393] was 800 to 2500 nM.
